The target of assay [1] is T1, IRAK1 (Homo sapiens, UniProt P51617).
T1 construct: purchased BPS Bioscience Inc. 40202
Briefly: LanthaScreen Eu Kinase Binding Assay for IRAK1, hit dose-response assay (DRC). As to conditions: for DRC result, activity class: class by pIC50 value. From the text: The experimental method of LanthaScreen^TM Eu Kinase Binding Assay for IRAK1 was developed based on the Invitrogen^TM IRAK1-GST LanthaScreen^TM binding assay. Purified recombinant IRAK1-His (cat. # 40202) was purchased from BPS Bioscience Inc. (San Diego, CA, USA). Kinase tracer 236 (cat. # PR9078A) was purchased from Thermo Fisher Scientific Inc. (Waltham, MA, USA). Eu-W1024-anti-6xHis antibody (cat. #AD0400) and 384-well white ProxiPlates^TM (cat. # 6008289) were purchased from Perkin Elmer, Inc. (Waltham, MA, USA). Echo-qualified 384 well COC low dead volume source microplates (cat. #001-16128) and Echo-qualified 384 well polypropylene microplates (cat. #001-14615) were purchased from Beckman Coulter Inc.(Indianapolis, IN, USA). The assay was carried out in an enclosed workcell with subdued lighting. All reagents were prepared in the assay buffer (50 mM HEPES, 10 mM MgCl 2 , 1 mM EGTA, 0.01% Brij-35, 1 mM DTT) and kept on ice. These included 2 x tracer 236 (0.2 μ M), 2 x IRAK1 /antibody solution (20 nM IRAK1-His, 4 nM Eu-W1024-anti-6xHis antibody) and 2 x antibody solution (4 nM Eu-W1024-anti-6xHis antibody). Five microliters of 2 x tracer 236 was dispensed into a 384-well white ProxiPlate^TM, followed by either 5 μ l of 2 x IRAK1/antibody solution or 5 μ l of 2 x antibody solution on a Tempest® dispenser (Formulatrix, Inc., Bedford, MA, USA). The plate was sealed on a Wasp plate sealer (KBiosciences Limited, Basildon, Essex, UK) and centrifuged at 1000 x g for 15 s on a HiG^TM automated centrifuge (BioNex Solutions Inc., San Jose, CA, USA) and incubated at room temperature for 30 min. The plate was then peeled and read on a PHERAstar® FSX (BMG LABTECH Inc., Cary, NC, USA) with a LanthaScreen^TM module at 340/615, 665 nm. The TR-FRET ratio (acceptor emission/donor emission x 10,000) was used as the readout.
A dose-response assay was conducted for each of the compound in the diversified set of 283 hits. Each compound was assayed in an 8-point curve with approximately 4-fold dilutions (subject to Echo dispense volume limits), starting at 30 μ M, and the assays were run in triplicates. The exact concentrations are 30, 7.5, 1.875, 0.469, 0.117, 0.029, 0.007, 0.002 μM . In each plate, three replicates of a staurosporine titration curve starting at 3 μ M were assayed in parallel as a reference.
The IC 50 of each dose-response curve was derived by fitting a four-parameter logistic (4PL) model, shown in Eq. 3, where the respective variables are defined as follows: • A : Minimum asymptote. Response value when x approaches infinity. • D : Maximum asymptote. Response value when x is very small or close to zero. • B : Slope factor (Hill’s slope). Steepness of the curve. • C : Inflection point. The concentration of the analyte that gives half-maximal response. 3 f(x)=A+D-A/1+x/C^B The 4PL model was fitted for each compound with data points for all three replicates all at once. As an additional quality control, 4PL regression models for all sub-micromolar compounds were manually inspected. Computed IC 50 were capped within the range of measured concentrations. In seven cases, where curve fits were erroneous and produced IC 50 values above assay sensitivity range, IC 50 values were reduced to the highest concentration used in the assay (30 μ M).

Assay [2] concerns the target T1, IRAK1. As to conditions: read-out: affinity; cited from earlier work.
Setting [3] is: 8-point curve from 30 μM, triplicates, 4PL fit, read-out: DRC result, IC50.
Setting [4] is: 8-point curve from 30 μM, triplicates, 4PL fit, read-out: DRC result, pIC50 (converted).

The structures appear in SMILES notation. Read-outs that look alike come from different tables or passages of the source.

T1 sequence (P51617 whole entry): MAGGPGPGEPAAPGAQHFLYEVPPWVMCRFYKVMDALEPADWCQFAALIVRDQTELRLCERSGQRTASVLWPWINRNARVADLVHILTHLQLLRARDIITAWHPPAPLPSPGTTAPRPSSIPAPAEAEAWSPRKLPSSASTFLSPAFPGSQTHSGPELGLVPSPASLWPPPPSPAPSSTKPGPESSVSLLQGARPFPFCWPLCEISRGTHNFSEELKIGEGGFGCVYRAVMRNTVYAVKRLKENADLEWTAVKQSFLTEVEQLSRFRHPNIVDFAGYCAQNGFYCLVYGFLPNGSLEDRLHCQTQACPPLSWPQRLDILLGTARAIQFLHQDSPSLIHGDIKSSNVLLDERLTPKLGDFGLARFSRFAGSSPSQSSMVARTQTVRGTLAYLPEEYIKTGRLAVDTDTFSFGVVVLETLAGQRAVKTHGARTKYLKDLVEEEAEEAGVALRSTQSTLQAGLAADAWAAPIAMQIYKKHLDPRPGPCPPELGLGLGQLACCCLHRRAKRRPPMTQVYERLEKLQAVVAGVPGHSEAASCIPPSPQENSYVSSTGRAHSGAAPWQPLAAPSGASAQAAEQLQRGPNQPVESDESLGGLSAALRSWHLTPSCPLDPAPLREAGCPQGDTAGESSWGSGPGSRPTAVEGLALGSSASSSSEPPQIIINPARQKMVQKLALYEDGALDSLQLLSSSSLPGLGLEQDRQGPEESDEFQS

Regarding `CNc1cc2c(cn1)cc(-c1ccc(F)c(NC(=O)Nc3cc(C(C)(C)C)nn3C)c1)c(=O)n2C(C)C` [A1], the values for the IC50 at IRAK1 [1] (setting [3]) and at IRAK1 [1] (setting [4]) were 90 nM and 91.2 nM, respectively. Also, the “DRC result, activity class” value at IRAK1 [1] was “nanomolar”.

As for `Cc1nc(Nc2ncc(F)c(-c3cc(F)c4nc(C)n(C(C)C)c4c3)n2)ccc1N1CCN(C(C)C)CC1` [B1], the values for the IC50 at IRAK1 [1] (setting [3]) and on IRAK1 [1] (setting [4]) were 20 nM and 19.1 nM, respectively. Also, the “DRC result, activity class” value at IRAK1 [1] is “nanomolar”.

On to `CCN1CCN(Cc2ccc(Nc3ncc(F)c(-c4cc(F)c5nc(C)n(C6CC6)c5c4)n3)nc2)CC1` [B2], for which the IC50 at IRAK1 [1] (setting [3]) is 60 nM; on IRAK1 [1] (setting [4]), 63.1 nM. Further, the “DRC result, activity class” value on IRAK1 [1] is given as “nanomolar”.

For `CC(C)(C)c1cc(NC(=O)NCc2ccc(-c3cnc4cc(-c5ccncc5)ccn34)cc2)n[nH]1` [C1], the “DRC result, pIC50” value on IRAK1 [1] (8-point curve from 30 μM, triplicates, 4PL fit) is 7.00. For the same compound, the IC50 at IRAK1 [1] (setting [3]) was found to be 100 nM. Also, the “DRC result, activity class” value at IRAK1 [1] is on record as “nanomolar”.

With `CC(C)Cc1ccnc(NC(=O)Cc2ccc(-c3cnc4cc(-c5ccncc5)ccn34)cc2F)c1` [C2], the IC50 on IRAK1 [1] (setting [3]) is 50 nM; at IRAK1 [1] (setting [4]) it was 52.5 nM. For the same compound, the “DRC result, activity class” value at IRAK1 [1] is listed as “nanomolar”.

Turning to `C=CC(=O)Nc1cccc(C(=O)Nc2ccc(NC(=O)c3cccc(-c4ccn[nH]4)n3)cc2)c1` [JH-X-119-01], the IC50 on IRAK1 [2] is 9 nM.

These data come from PMC11566907, “Accelerated hit identification with target evaluation, deep learning and automated labs: prospective validation in IRAK1” (Journal of Cheminformatics, 2024).
